Test results reported in US12453722B2, “Maleate of nicotinyl alcohol ether derivative, crystal form thereof, and application thereof” (INSTITUTE OF MATERIA MEDICA, CHINESE ACADEMY OF MEDICAL …, priority 2019, dated 2025).
Where “and” joins values, the source holds several entries; their conditions need not be identical. Equal values may be shown once. Marks after values point to notes of the source that are not given here. Each block holds one molecule with its values, some of them ahead of it.

What was measured:
mouse melanoma B16F10 = assay: In vivo antitumor effect, subcutaneous transplanted tumor model of mouse melanoma B16F10; settings: for TGI %: B16F10, TGI=(1-T/C)×100 by tumor weight
Method: The in vivo antitumor effects of the compound of Example 1 and the compound of Example 2 as PD-L1 inhibitors on mouse melanoma B16F10 were evaluated on the subcutaneous transplanted tumor model of mice.
(§1) Experimental steps: the subcultured B16F10 tumor strain was ground with a homogenizer, washed twice with sterile normal saline and counted, and the cell concentration of tumor cell suspension was adjusted with normal saline to 9×10^6/ml. 0.2 ml of the cell suspension was inoculated into the right armpit of C57BL/6J mice and the day was recorded as day 0. The next day after inoculation, the animals were randomly divided into groups, weighed and administered. The mice in the solvent control group were administrated with 0.5% CMC orally every day. […] The compounds to be tested were administered orally once a day. The animals were weighed and killed during treatment. The tumor tissues were stripped, weighed and photographed. Finally, the tumor inhibition rates were calculated to evaluate the intensity of antitumor effect.
(§2) Calculation and statistical method: tumor proliferation inhibition rate TGI (%): TGI=(1-T/C)×100. (T: tumor weight in the treatment group; C: tumor weight in the negative control group). Statistical method: Graphpad was used for data statistical analysis, and One-way ANOVA test was used, * P<0.05, * * P<0.01, * * * P<0.001.

mouse colon cancer MC38 = assay: In vivo antitumor effect, subcutaneous transplanted tumor model of mouse colon cancer MC38; settings: for Body weight (g) X ± SD, End / Body weight (g) X ± SD, Start / Tumor weight (g) X ± SD: MC38, C57BL/6J mice; for TGI %: MC38, TGI=(1-T/C)×100 by tumor weight
Method: The in vivo antitumor effects of the compound of Example 1 and the compound of Example 2 as PD-L1 inhibitors on mouse colon cancer MC38 were evaluated on the subcutaneous transplanted tumor model of mice.
as §1, with “MC38” for “B16F10”, “9×10^6/ml,” for “9×10^6/ml.”
as §2, with “group:” for “group;”

[1] = tested on: human lung cancer NCI-H460; assay: In vivo antitumor effect, human lung cancer NCI-H460 model in NSG mice reconstructed by human immune system; settings: for Tumor volume X ± SD, Day 1 / Tumor volume X ± SD, Day 20 / Tumor weight (g) X ± SD: NCI-H460, NSG mice with human PBMCs; for TGI %: NCI-H460, TGI=(1-T/C)×100 by tumor weight
Method: The in vivo antitumor effects of the compound of Example 1 and the compound of Example 2 as PD-L1 inhibitors were evaluated on the NCI-H460 model of human lung cancer in NSG tumor-bearing mice reconstructed by human immune system. […]
Experimental steps: PBMCs were obtained by isolation of fresh human leukocytes, then inoculated into NSG mice through caudal vein, and each mouse was inoculated with 1×10^7. On the third day. NCI-H460 tumor cells were inoculated into the armpit of mice, and each mouse was inoculated with 1×10^6. After the tumors grew to 100˜300 mm^3, the mice were administered in groups. The mice in the solvent control group were administrated with 0.5% CMC orally every day. […] The compounds to be tested were administered orally once a day. The animals were weighed and killed during treatment. The tumor tissues were stripped, weighed and photographed. Finally, the tumor inhibition rates were calculated to evaluate the intensity of antitumor effect.
as §2, with “group:” for “group;”

[2] = log P (physical and chemical properties); format: physicochemical
[3] = Influencing factor test (stability at high temperature, high humidity, illumination); format: physicochemical
Method: When the temperature rose to the top of DSC endothermic peak (about 175° C.), the weight loss was obvious, which was the weight loss caused by the melting decomposition of the sample. The DSC endothermic peak was the decomposition point of the compound of Example 2. 4.
• (1) Physical and chemical properties • Appearance: white solid • Melting point: 174.68° C.
The compound of Example 2 was stable under the conditions of illumination, high temperature and high humidity.

[4] = tested on: pleural mesothelioma (PM); settings: 25 patients with pleural mesothelioma (PM); cited from earlier work
[5] = 80 × 1 mg/kg, intraperitoneal, B16F10, C57BL/6J mice, 1 mg/kg
[6] = 5 × 14 mg/kg, oral once a day, B16F10, C57BL/6J mice
[7] = 10 × 14 mg/kg, oral once a day, B16F10, C57BL/6J mice
[8] = 2.5 × 14 mg/kg, oral once a day

Molecule: O=P1(N(CCCl)CCCl)NCCCO1 (stereo not drawn) [CTX, cyclophosphamide]
- Body weight (g) X ± SD, End (mouse melanoma B16F10; [5]): 19.2 ± 0.8 g and 17.5 ± 0.9 g
- Body weight (g) X ± SD, Start (mouse melanoma B16F10; [5]): 16.94 ± 0.43 g and 16.9 ± 0.8 g
- TGI % (mouse melanoma B16F10; 80 × 1 mg/kg, intraperitoneal, 1 mg/kg): 90% and 70%
- Body weight (g) X ± SD, End (mouse colon cancer MC38; 40 × 1 mg/kg, intraperitoneal): 21.7 ± 1.4 g
- Body weight (g) X ± SD, Start (mouse colon cancer MC38; 40 × 1 mg/kg, intraperitoneal): 18.8 ± 0.9 g
- Tumor weight (g) X ± SD (mouse colon cancer MC38; 40 × 1 mg/kg, intraperitoneal): 1.30 ± 1.44** g
- TGI % (mouse colon cancer MC38; 40 × 1 mg/kg, intraperitoneal): 67%
- Body weight (g) X ± SD, End (mouse colon cancer MC38; 40 × 2 mg/kg, intraperitoneal): 24.5 ± 0.9 g
- Body weight (g) X ± SD, Start (mouse colon cancer MC38; 40 × 2 mg/kg, intraperitoneal): 22.0 ± 0.8 g
- Tumor weight (g) X ± SD (mouse colon cancer MC38; 40 × 2 mg/kg, intraperitoneal): 0.17 ± 0.10** g
- TGI % (mouse colon cancer MC38; 40 × 2 mg/kg, intraperitoneal): 90%
- Tumor volume X ± SD, Day 1 ([1]; 100 × 1 mg/kg, intraperitoneal): 165.4 ± 22.4
- Tumor volume X ± SD, Day 20 ([1]; 100 × 1 mg/kg, intraperitoneal): 556.5 ± 81.1
- Tumor weight (g) X ± SD ([1]; 100 × 1 mg/kg, intraperitoneal): 0.90 ± 0.15*** g
- TGI % ([1]; 100 × 1 mg/kg, intraperitoneal): 66.9%

- logP [2]: 2.4
- Appearance ([3]; 60° C., 5 days): off white powder
- Melting point (DSC method, ° C.) ([3]; 60° C., 5 days): 118.69 °C
- Purity (%) ([3]; 60° C., 5 days): 99.5%
- Related substances (%) ([3]; 60° C., 5 days): 0.5%
- Appearance ([3]; Illumination, 5 days): transparent bulk
- Purity (%) ([3]; Illumination, 5 days): 96.0%
- Related substances (%) ([3]; Illumination, 5 days): 4.0%
- Stability under illumination conditions ([3]; Illumination, 5 days): unstable
- Appearance ([3]; Initial): off white powder
- Melting point (DSC method, ° C.) ([3]; Initial): 119.36 °C
- Purity (%) ([3]; Initial): 99.5%
- Related substances (%) ([3]; Initial): 0.5%
- Purity (%) ([3]; RH 92.5%, 5 days): 99.5%
- Appearance ([3]; RH 92.5%, 5 days, hydrochloride): colorless viscous liquid
- Moisture absorption ([3]; high humidity of RH92.5%, 5 days): serious moisture absorption
- Stability under high temperature conditions ([3]; high temperature of 60° C., 5 days): stable
Molecule: CC(C)OC(=O)[C@H](CO)NCc1cc(Cl)c(OCc2cccc(-c3ccccc3)c2Br)cc1OCc1cccnc1.Cl.Cl [Example 1, isopropyl (S)-N-[2-(pyridine-3-yl-methoxy)-4-(2-bromo-3-(phenyl)benzyloxy)-5-chlorobenzyl] serinate hydrochloride]
- Tumor weight (g) X ± SD (mouse melanoma B16F10; [6]): 3.11 ± 0.98* g
- TGI % (mouse melanoma B16F10; 5 × 14 mg/kg, oral once a day): 11%
- Tumor weight (g) X ± SD (mouse melanoma B16F10; [7]): 3.04 ± 0.94** g
- TGI % (mouse melanoma B16F10; 10 × 14 mg/kg, oral once a day): 13%
- Tumor weight (g) X ± SD (mouse colon cancer MC38; 5 × 14 mg/kg, oral once a day): 3.21 ± 0.28*** g
- TGI % (mouse colon cancer MC38; 5 × 14 mg/kg, oral once a day): 18%
- Tumor weight (g) X ± SD (mouse colon cancer MC38; 10 × 14 mg/kg, oral once a day): 2.86 ± 1.36** g
- TGI % (mouse colon cancer MC38; 10 × 14 mg/kg, oral once a day): 27%
- Tumor volume X ± SD, Day 1 ([1]; 15 × 14 mg/kg, oral once a day): 161.9 ± 21.0
- Tumor volume X ± SD, Day 20 ([1]; 15 × 14 mg/kg, oral once a day): 1441.4 ± 337.6
- Tumor weight (g) X ± SD ([1]; 15 × 14 mg/kg, oral once a day): 2.06 ± 0.22 g
- TGI % ([1]; 15 × 14 mg/kg, oral once a day): 24.7%

- log P [2]: 3.2
- Appearance ([3]; 60° C., 10 days): white
- Chiral impurities (%) ([3]; 60° C., 10 days): 0.2%
- Melting point (DSC method, ° C.) ([3]; 60° C., 10 days): 174.64 °C
- Purity (%) ([3]; 60° C., 10 days): 98.7%
- Related substances (%) ([3]; 60° C., 10 days): 1.3%
- Appearance ([3]; Illumination, 10 days): white
- Chiral impurities (%) ([3]; Illumination, 10 days): 0.2%
- Melting point (DSC method, ° C.) ([3]; Illumination, 10 days): 174.60 °C
- Purity (%) ([3]; Illumination, 10 days): 98.6%
- Related substances (%) ([3]; Illumination, 10 days): 1.4%
- Appearance ([3]; Initial): white
- Chiral impurities (%) ([3]; Initial): 0.2%
- Melting point (DSC method, ° C.) ([3]; Initial): 174.68 °C
- Purity (%) ([3]; Initial): 98.7%
- Related substances (%) ([3]; Initial): 1.3%
- Appearance ([3]; RH 92.5%, 10 days): white
- Chiral impurities (%) ([3]; RH 92.5%, 10 days): 0.2%
- Melting point (DSC method, ° C.) ([3]; RH 92.5%, 10 days): 174.57 °C
- Purity (%) ([3]; RH 92.5%, 10 days): 98.7%
- Related substances (%) ([3]; RH 92.5%, 10 days): 1.3%
- Stability under illumination, high temperature and high humidity ([3]; illumination, 60° C., RH 92.5%, 10 days): stable
Molecule: CC(C)OC(=O)[C@H](CO)NCc1cc(Cl)c(OCc2cccc(-c3ccccc3)c2Br)cc1OCc1cccnc1.O=C(O)/C=C\C(=O)O [Example 2, isopropyl (S)-N-(2-(pyridine-3-yl-methoxy)-4-(2-bromo-3-phenylbenzyloxy)-5-chlorobenzyl) serinate maleate]
- Tumor weight (g) X ± SD (mouse melanoma B16F10; [6]): 1.39 ± 0.84* g
- TGI % (mouse melanoma B16F10; 5 × 14 mg/kg, oral once a day): 40%
- Tumor weight (g) X ± SD (mouse melanoma B16F10; [7]): 1.04 ± 0.66** g
- TGI % (mouse melanoma B16F10; 10 × 14 mg/kg, oral once a day): 55%
- Comparison of tumor inhibition rate at the same dosage (mouse melanoma B16F10; Tumor model B16F10): Compound of the Example 2 (maleate) > Compound
- Tumor weight (g) X ± SD (mouse colon cancer MC38; [8]): 1.13 ± 0.78 g
- TGI % (mouse colon cancer MC38; [8]): 34%
- Tumor weight (g) X ± SD (mouse colon cancer MC38; 5 × 14 mg/kg, oral once a day): 0.42 ± 0.39*** g
- TGI % (mouse colon cancer MC38; 5 × 14 mg/kg, oral once a day): 75%
- Tumor weight (g) X ± SD (mouse colon cancer MC38; 10 × 14 mg/kg, oral once a day): 0.73 ± 0.54** g
- TGI % (mouse colon cancer MC38; 10 × 14 mg/kg, oral once a day): 57%
- Comparison of tumor inhibition rate at the same dosage (mouse colon cancer MC38; Tumor model MC38): Compound of the Example 2 (maleate) > Compound
- Tumor volume X ± SD, Day 1 ([1]; 15 × 14 mg/kg, oral once a day): 166.5 ± 24.5
- Tumor volume X ± SD, Day 20 ([1]; 15 × 14 mg/kg, oral once a day): 1405.2 ± 442.9
- TGI % ([1]; 15 × 14 mg/kg, oral once a day): 30.6%
- Comparison of tumor inhibition rate at the same dosage ([1]; Tumor model NSG NCI-H460): Compound of the Example 2 (maleate) > Compound

Molecule: Keytruda: first FDA approved PD-1 monoclonal antibody, from Merck
- disease control rate [4]: 76%
- overall response rate (ORR) [4]: 28%
